Here are results for 26 compounds from patent publication US9018229B2, “Quinolone compound and pharmaceutical composition” (Otsuka Pharmaceutical Co., Ltd., priority 2008, dated 2015).

Structures can show the parent of a compound that is named as a salt.

For orientation: melting point means the temperature, or range, at which the solid turns liquid.

Data set [1] has as its system human neuroblastoma cell lines SH-SY5Y treated with 1-methyl-4-phenylpyridinium (MPP+). The experiment in a line: Improvement of mitochondrial dysfunction in MPP+-treated SH-SY5Y cells (mitochondrial oxidation reduction activity, Alamar Blue). It is filed as cell-based. The note with it: 1.5 mM MPP+, relative to cells in DMSO alone = 100%, read-out: Fluorescence Intensity (%); for activity at 0.01 µg/mL: test compound 0.01 μg/ml; for activity at 0.03 µg/mL: test compound 0.03 μg/ml; for activity at 0.1 µg/mL: test compound 0.1 μg/ml; for activity at 0.3 µg/mL: test compound 0.3 μg/ml; for activity at 1 µg/mL: test compound 1 μg/ml. Here is the method:
Evaluation of the Improvement of Mitochondrial Dysfunction Using Human Neuroblastoma Cell Lines SH-SY5Y Treated with 1-methyl-4-phenylpyridinium (MPP^+)
In human neuroblastoma cell lines SH-SY5Y in which mitochondrial activity was injured by MPP^+ treatment (Bollimuntha S. et al., J Biol Chem, 280, 2132-2140 (2005) and Shang T. et al., J Biol Chem, 280, 34644-34653 (2005)), the improvement of mitochondrial dysfunction was evaluated on the basis of measurement values for mitochondrial oxidation reduction activity using Alamar Blue fluorescent dye after the compound addition (Nakai M. et al, Exp Neurol, 179, 103-110 (2003)).
The human neuroblastoma cell lines SH-SY5Y were cultured in Dulbecco's Modified Eagle's Medium containing 10% fetal bovine serum (DMEM containing 50 units/ml penicillin and 50 μg/ml streptomycin as antibiotics) at 37° C. in the presence of 5% carbon dioxide. Cells were scattered on a poly-D-lysine-coated 96-well black plate at a concentration of 3−6×10^4 cells/cm^2 (medium amount: 100 μl/well), and cultured in the above medium for two days. Further, the medium was changed to DMEM containing a 1% N2 supplement (N2-DMEM) or to a medium (100 μl/well) in which 1.5 mM MPP^+ was dissolved. The cells were cultured therein for 39 to 48 hours, and then subjected to a mitochondrial oxidation reduction activity measurement system. A sample compound that had been previously dissolved in dimethyl sulfoxide (DMSO) was diluted with N2-DMEM, and added in a volume of 10 μl/well 24 hours before the activity measurement (final compound concentration: 0.01 to 1 μg/ml).
After removal of the medium by suction, a balanced salt solution containing 10% Alamar Blue (154 mM sodium chloride, 5.6 mM potassium chloride, 2.3 mM calcium chloride, 1.0 mM magnesium chloride, 3.6 mM sodium bicarbonate, 5 mM glucose, 5 mM HEPES, pH 7.2) was added in a volume of 100 μl/well, and reacted in an incubator at 37° C. for 1 hour. The fluorescent intensity was detected using a fluorescence detector (a product of Hamamatsu Photonics K.K., excitation wavelength 530 nm, measurement wavelength 580 nm) to thereby measure the mitochondrial oxidation reduction activity.
The fluorescent intensity of the well of the cells cultured in a medium containing MPP^+ and in each of the sample compounds was relatively evaluated based on the 100% fluorescent intensity of the well of the cells cultured in a medium containing DMSO alone (final concentration: 0.1%).
Background: Alamar Blue is a resazurin reagent that responds to reducing activity.

With `CCCOc1ccc(F)c2c(=O)c(-c3ccc(OC)cc3)cn(COC(=O)c3ccc(OP(=O)([O-])[O-])cc3)c12.[Na+].[Na+]`, the melting point fell in the range of 205 to 207 °C.
With `CCCOc1ccc(F)c2c(=O)c(-c3ccc(OC)cc3)c(C(=O)NCCN3CCOCC3)[nH]c12` [Example 171, 5-fluoro-3-(4-methoxyphenyl)-4-oxo-8-propoxy-1,4-dihydroquinoline-2-carboxy-[2-(morpholin-4-yl)ethyl]amide], in data set [1], the activity at 0.01 µg/mL came to 61%, the activity at 0.03 µg/mL was 61%, the activity at 0.1 µg/mL came out at 65% and the activity at 0.3 µg/mL came to 67%. Moreover, the activity at 1 µg/mL in data set [1] was 68%.
Consider `CCCOc1cc2ccccc2c2c(=O)c(-c3ccc(OC)cc3)c(C)[nH]c12`, for which the melting point was 204 to 206 °C.
Still for that read-out and setting: the figure for `CCCOc1ccc(F)c2c(=O)c(-c3ccc(Cl)cc3Cl)cn(COP(=O)([O-])[O-])c12.[Na+].[Na+]` is 208 to 210 °C; for `CCCOc1ccc(F)c2c(=O)c(-c3ccc(OC)cc3)cn(CCS(=O)(=O)CCCN3CCN(C)CC3)c12.Cl.Cl` it is 72 to 74 °C.
With `COc1ccc(-c2c[nH]c3c4c(cc(C)c3c2=O)CCO4)cc1` [Example 57, 7-(4-methoxyphenyl)-5-methyl-2,3-dihydro-9H-flo[3,2-h]quinolin-6-one], in data set [1], the activity at 0.01 µg/mL stood at 64%, the activity at 0.03 µg/mL stood at 65%, the activity at 0.1 µg/mL was 68% and the activity at 0.3 µg/mL came to 74%. Besides, the activity at 1 µg/mL in data set [1] worked out at 65%.
Regarding `CCCOc1cc2cnccc2c2c(=O)c(-c3ccc(OC)cc3)cn(CC(=O)NCCN3CCOCC3)c12` [Example 69, 2-[9-(4-methoxyphenyl)-10-oxo-6-propoxy-10H-[3,7]phenanthrolin-7-yl]-N-(2-morpholin-4-ylethyl)acetamide], in data set [1], the activity at 0.01 µg/mL was determined as 78%, the activity at 0.03 µg/mL was 64%, the activity at 0.1 µg/mL amounted to 68% and the activity at 0.3 µg/mL is 67%. For the same compound, the activity at 1 µg/mL in data set [1] is 65%.
The matching figures for `CCCOc1cc2c(c3c(=O)c(-c4ccsc4)c[nH]c13)CCC2` [Example 12, 5-propoxy-8-thiophen-3-yl-1,2,3,6-tetrahydro-6-aza-cyclopenta[a]naphthalen-9-one]: 80%, 74%, 83%, 82% and 68%.
The matching figures for `CCCOc1ccc(F)c2c(=O)c(-c3cnn(C)c3)cn(COP(=O)(O)O)c12` [Example 222, [5-fluoro-3-(1-methyl-1H-pyrazol-4-yl)-4-oxo-8-propoxy-4H-quinolin-1-ylmethyl]monophosphate disodium salt]: 59%, 64%, 66%, 62% and 73%.
In the same order, the values of `CCCOc1cc2c(c3c(=O)c(-c4ccc(OC)cc4)cn(COP(=O)(O)O)c13)OCCC2` [Example 36, [3-(4-methoxyphenyl)-4-oxo-10-propoxy-7,8-dihydro-4H,6H-5-oxa-1-aza-phenanthren-1-ylmethyl]monophosphate disodium salt] are 69%, 67%, 86%, 90% and 89%.
For the compound `CCCOc1ccc(F)c2c(=O)c(-c3ccc(OC)cc3)cn(COP(=O)(O)O)c12` [Example 212, [5-fluoro-3-(4-methoxyphenyl)-4-oxo-8-propoxy-4H-quinolin-1-ylmethyl]monophosphate disodium salt], in data set [1], the activity at 0.01 µg/mL was found to be 46%, the activity at 0.03 µg/mL was found to be 62%, the activity at 0.1 µg/mL came out at 63% and the activity at 0.3 µg/mL is 70%. Moreover, the activity at 1 µg/mL in data set [1] was 72%.
`CCCOc1ccc(F)c2c(=O)c(-c3ccc(OC)cc3)cn(CCN3CCOCC3)c12` had a melting point of 206 to 208 °C.
Same read-out and setting: the figure for `CCCOc1ccc(F)c2c(=O)c(-c3ccc(OC)cc3)cn(CC(=O)NCCN3CCOCC3)c12` is 139 to 141 °C; for `CCCOc1cc2c(c3c(=O)c(-c4ccc(OC)cc4)cn(CC(=O)NCCN4CCOCC4)c13)OCCC2` it is 201 to 203 °C.
`CCCOc1cc2ccccc2c2c(=O)c(-c3ccsc3)cn(C)c12` [Example 7, 4-methyl-5-propoxy-2-thiophen-3-yl-4H-benzo[f]quinolin-1-one]: in data set [1], the activity at 0.01 µg/mL amounted to 66%, the activity at 0.03 µg/mL turned out to be 71%, the activity at 0.1 µg/mL was 78% and the activity at 0.3 µg/mL came out at 80%. Further, the activity at 1 µg/mL in data set [1] came out at 75%.
`CCCOc1cc2ccccc2c2c(=O)c(-c3ccoc3)c[nH]c12` had a melting point of 252 to 254 °C.
Consider `CCCOc1ccc(F)c2c(=O)c(-c3ccc(C(=O)N4CCC(N5CCOCC5)CC4)cc3)c[nH]c12` [Example 163, 5-fluoro-3-[4-(4-morpholin-4-yl-piperidine-1-carbonyl)phenyl]-8-propoxy-1H-quinolin-4-one], for which, in data set [1], the activity at 0.01 µg/mL amounted to 61%, the activity at 0.03 µg/mL is 61%, the activity at 0.1 µg/mL amounted to 63% and the activity at 0.3 µg/mL amounted to 60%. Further, the activity at 1 µg/mL in data set [1] was 63%.
On to `CCCOc1cc2c(c3c(=O)c(-c4ccc(OC)cc4)cn(CCCN4CCOCC4)c13)CCC2`, for which the melting point lay in the range of 135 to 137 °C.
The same measure, in the same setting: to `CCCOc1ccc(F)c2c(=O)c(-c3ccc(OC)cc3)c(CN3CCN(c4ccccn4)CC3)[nH]c12` belongs 211 to 212 °C.
Regarding `CCCOc1cc2c(c3c(=O)c(-c4ccc(OC)cc4)c(C)[nH]c13)OCC2` [Example 48, 8-(4-methoxyphenyl)-7-methyl-5-propoxy-3,6-dihydro-2H-flo[2,3-f]quinolin-9-one], in data set [1], the activity at 0.01 µg/mL came to 60%, the activity at 0.03 µg/mL came out at 81%, the activity at 0.1 µg/mL was 92% and the activity at 0.3 µg/mL came to 93%. Besides, in data set [1], the activity at 1 µg/mL is 80%.
Turning to `CCCOc1ccc(F)c2c(=O)c(-c3ccc(OC)cc3)cn(CC(=O)N(C)CCN3CCOCC3)c12`, the melting point lay in the range of 218 to 220 °C.
Still for that read-out and setting: the figure for `CCCOc1cc2ccccc2c2c(=O)c(-c3ccoc3)cn(C)c12` is 165 to 167 °C; for `CCCOc1ccc(F)c2c(=O)c(-c3ccc(OC)cc3)cn(CCC(=O)OCCN3CCN(C)CC3)c12.Cl.Cl` it is 150 to 152 °C.
On the same count and under the same terms, to `CCCOc1ccc(F)c2c(=O)c(-c3ccc(OC)cc3)cn(CC(=O)NC3CCNCC3)c12` belongs 226 to 228 °C.
For the compound `COc1ccc(-c2c[nH]c3c(OCC(=O)NCCN4CCOCC4)ccc(F)c3c2=O)cc1` [Example 139, 2-[5-fluoro-3-(4-methoxyphenyl)-4-oxo-1,4-dihydro-quinolin-8-yloxy]-N-(2-morpholin-4-ylethyl)acetamide], in data set [1], the activity at 0.01 µg/mL turned out to be 53%, the activity at 0.03 µg/mL worked out at 58%, the activity at 0.1 µg/mL was 57% and the activity at 0.3 µg/mL was found to be 60%. Moreover, the activity at 1 µg/mL in data set [1] is 55%.
For the compound `CCCOc1cc2ccccc2c2c(=O)c(-c3ccc(OC)cc3)c[nH]c12`, the melting point is 172 to 174 °C.
